Measurements taken from patent US6737383B1, “Herbicidal oxadiazolidines” (priority 1999, dated 2004).

What was measured:
[1] = test system: corn; assay: Test B pre/postemergence corn; type: in vivo, Zea mays
Outline: (§1)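 Response is a visual 0-to-10 score relative to untreated plants, where 0 means no effect and 10 means complete control, taken twelve to sixteen days after application. Treatments went onto soil at planting and onto foliage of 1- to 4-leaf plants, using a surfactant-containing non-phytotoxic solvent.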

[2] = test system: wild oat; assay: Test B pre/postemergence wild oat; type: in vivo, Avena fatua
Outline: as §1

[3] = test system: purple nutsedge; assay: Test B pre/postemergence purple nutsedge; type: in vivo, Cyperus rotundus
Outline: as §1

[4] = test system: bamyardgrass; assay: Test B flood test barnyardgrass; type: in vivo, Echinochloa crus-galli
Outline: (§2)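 Each value is a visual injury score relative to controls, with 10 meaning complete control and 0 no effect. Evaluation took place twelve to sixteen days after the 2-leaf-stage plants were treated and kept in the greenhouse.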

[5] = test system: sugar beet; assay: Test B pre/postemergence sugar beet; type: in vivo, Beta vulgaris
Outline: as §1

[6] = test system: rice; assay: Test B flood test rice; type: in vivo, Oryza sativa
Outline: as §2

[7] = test system: giant foxtail; assay: Test B pre/postemergence giant foxtail; type: in vivo, Setaria faberii
Outline: as §1

[8] = test system: cocklebur; assay: Test B pre/postemergence cocklebur; type: in vivo, Xanthium strumarium
Outline: as §1

[9] = test system: rape; assay: Test B pre/postemergence rape; type: in vivo, Brassica napus
Outline: as §1

[10] = test system: crabgrass; assay: Test B pre/postemergence crabgrass; type: in vivo, Digitaria sanguinalis
Outline: as §1

[11] = test system: bedstraw; assay: Test B pre/postemergence bedstraw; type: in vivo, Galium aparine
Outline: as §1

[12] = test system: surinam grass; assay: Test B pre/postemergence surinam grass; type: in vivo, Brachiaria decumbens
Outline: as §1

[13] = test system: morningglory; assay: Test B pre/postemergence morningglory; type: in vivo, Ipomoea hederacea
Outline: as §1

[14] = test system: wheat; assay: Test B pre/postemergence wheat; type: in vivo, Triticum aestivum
Outline: as §1

[15] = test system: pigweed; assay: Test B pre/postemergence pigweed; type: in vivo, Amaranthus retroflexus
Outline: as §1

[16] = test system: blackgrass; assay: Test B pre/postemergence blackgrass; type: in vivo, Alopecurus myosuroides
Outline: as §1

[17] = Preemergence, Rate 62 g/ha, scale of 0 to 10 where 0 is no effect and 10 is complete control
[18] = Preemergence, Rate 125 g/ha, 0 is no effect, 10 is complete control
[19] = Preemergence, Rate 250 g/ha, scale 0 to 10, 0 is no effect, 10 is complete control
[20] = Preemergence, Rate 500 g/ha, scale of 0 to 10 where 0 is no effect and 10 is complete control
[21] = Rate 62 g/ha, Postemergence, scale of 0 to 10 where 0 is no effect and 10 is complete control
[22] = Rate 125 g/ha, Postemergence, scale 0 to 10
[23] = Rate 500 g/ha, Postemergence, scale 0 to 10
[24] = Rate 31 g/ha, Pre-emergence section (flood test species), scale 0 to 10
[25] = Rate 62 g/ha, headed Pre-emergence (flood test species), scale 0 to 10 (0 no effect, 10 complete control)
[26] = Rate 125 g/ha, Pre-emergence, flood test species, scale 0 to 10 where 0 is no effect and 10 is complete control
[27] = Rate 250 g/ha, Pre-emergence, flood-test species, scale 0 to 10, 0 is no effect, 10 is complete control
[28] = Rate 500 g/ha, headed Pre-emergence (flood test species), scale 0 to 10 (0 no effect, 10 complete control)

Cc1nc(C)c(-n2c(=O)on(C(=O)N(c3ccc(Cl)cc3)C(C)C)c2=O)s1 [Compound 196]
0: Corn plant response rating [1, 17] | Corn plant response rating (0 to 10 scale) [1, 18] | Corn plant response rating [1, 19] | Plant response rating, Corn [1, 20] | Corn plant response rating [1, 21] | Corn plant response rating [1, 22] | Plant response rating (0 to 10; 0 is no effect, 10 is complete control), Corn ([1]; Rate 250 g/ha, Postemergence) | Corn plant response rating [1, 23] | Wild oats plant response rating [2, 17] | Wild oats plant response rating [2, 19] | Plant response rating, Wild oats [2, 20] | Wild oats plant response rating [2, 21] | Wild oats plant response rating [2, 22] | Plant response rating (0 to 10; 0 is no effect, 10 is complete control), Wild oats ([2]; Rate 250 g/ha, Postemergence) | Nutsedge plant response rating [3, 17] | Nutsedge plant response rating (0 to 10 scale) [3, 18] | Nutsedge plant response rating [3, 19] | Plant response rating, Nutsedge [3, 20] | Nutsedge plant response rating [3, 21] | Nutsedge plant response rating [3, 22] | Plant response rating (0 to 10; 0 is no effect, 10 is complete control), Nutsedge ([3]; Rate 250 g/ha, Postemergence) | Nutsedge plant response rating [3, 23] | Barnyardgrass plant response rating [4, 24] | Barnyardgrass plant response rating [4, 25] | Barnyardgrass plant response rating [4, 26] | Barnyardgrass plant response rating [4, 27] | Plant response rating, Barnyardgrass [4, 28] | Sugarbeets plant response rating [5, 17] | Sugarbeets plant response rating (0 to 10 scale) [5, 18] | Sugarbeets plant response rating [5, 19] | Plant response rating, Sugarbeets [5, 20] | Sugarbeets plant response rating [5, 21] | Sugarbeets plant response rating [5, 22] | Plant response rating (0 to 10; 0 is no effect, 10 is complete control), Sugarbeets ([5]; Rate 250 g/ha, Postemergence) | Sugarbeets plant response rating [5, 23] | Rice plant response rating [6, 24] | Rice plant response rating [6, 25] | Rice plant response rating [6, 26] | Rice plant response rating [6, 27] | Plant response rating, Rice [6, 28] | Giant foxtail plant response rating [7, 17] | Giant foxtail plant response rating (0 to 10 scale) [7, 18] | Giant foxtail plant response rating [7, 19] | Plant response rating, Giant foxtail [7, 20] | Giant foxtail plant response rating [7, 21] | Giant foxtail plant response rating [7, 22] | Plant response rating (0 to 10; 0 is no effect, 10 is complete control), Giant foxtail ([7]; Rate 250 g/ha, Postemergence) | Giant foxtail plant response rating [7, 23] | Cocklebur plant response rating [8, 17] | Cocklebur plant response rating (0 to 10 scale) [8, 18] | Cocklebur plant response rating [8, 19] | Plant response rating, Cocklebur [8, 20] | Cocklebur plant response rating [8, 21] | Cocklebur plant response rating [8, 22] | Plant response rating (0 to 10; 0 is no effect, 10 is complete control), Cocklebur ([8]; Rate 250 g/ha, Postemergence) | Cocklebur plant response rating [8, 23] | Rape plant response rating [9, 17] | Rape plant response rating (0 to 10 scale) [9, 18] | Rape plant response rating [9, 19] | Plant response rating, Rape [9, 20] | Rape plant response rating [9, 21] | Rape plant response rating [9, 22] | Plant response rating (0 to 10; 0 is no effect, 10 is complete control), Rape ([9]; Rate 250 g/ha, Postemergence) | Rape plant response rating [9, 23] | Crabgrass plant response rating [10, 17] | Crabgrass plant response rating (0 to 10 scale) [10, 18] | Crabgrass plant response rating [10, 19] | Plant response rating, Crabgrass [10, 20] | Crabgrass plant response rating [10, 21] | Crabgrass plant response rating [10, 22] | Plant response rating (0 to 10; 0 is no effect, 10 is complete control), Crabgrass ([10]; Rate 250 g/ha, Postemergence) | Crabgrass plant response rating [10, 23] | Bedstraw plant response rating [11, 17] | Bedstraw plant response rating (0 to 10 scale) [11, 18] | Bedstraw plant response rating [11, 19] | Plant response rating, Bedstraw [11, 20] | Bedstraw plant response rating [11, 21] | Bedstraw plant response rating [11, 22] | Plant response rating (0 to 10; 0 is no effect, 10 is complete control), Bedstraw ([11]; Rate 250 g/ha, Postemergence) | Bedstraw plant response rating [11, 23] | B. signalgrass plant response rating [12, 17] | B. signalgrass plant response rating (0 to 10 scale) [12, 18] | B. signalgrass plant response rating [12, 19] | Plant response rating, B. signalgrass [12, 20] | B. signalgrass plant response rating [12, 21] | B. signalgrass plant response rating ([12]; Rate 125 g/ha, Postemergence, scale 0 (no effect) to 10 (complete control)) | Plant response rating, B. signalgrass ([12]; Rate 250 g/ha, Postemergence, scale 0 to 10, 0 is no effect, 10 is complete control) | B. signalgrass plant response rating ([12]; Rate 500 g/ha, Postemergence, scale 0 to 10, 0 no effect, 10 complete control) | Morningglory plant response rating [13, 17] | Morningglory plant response rating (0 to 10 scale) [13, 18] | Morningglory plant response rating [13, 19] | Plant response rating, Morningglory [13, 20] | Morningglory plant response rating [13, 21] | Morningglory plant response rating [13, 22] | Plant response rating (0 to 10; 0 is no effect, 10 is complete control), Morningglory ([13]; Rate 250 g/ha, Postemergence) | Morningglory plant response rating [13, 23] | Wheat plant response rating [14, 17] | Wheat plant response rating [14, 19] | Plant response rating, Wheat [14, 20] | Wheat plant response rating [14, 21] | Wheat plant response rating [14, 22] | Plant response rating (0 to 10; 0 is no effect, 10 is complete control), Wheat ([14]; Rate 250 g/ha, Postemergence) | Redroot pigweed plant response rating [15, 17] | Redroot pigweed plant response rating (0 to 10 scale) [15, 18] | Redroot pigweed plant response rating [15, 19] | Plant response rating, Redroot pigweed [15, 20] | Redroot pigweed plant response rating [15, 21] | Redroot pigweed plant response rating [15, 22] | Plant response rating (0 to 10; 0 is no effect, 10 is complete control), Redroot pigweed ([15]; Rate 250 g/ha, Postemergence) | Redroot pigweed plant response rating [15, 23] | Blackgrass plant response rating [16, 17] | Blackgrass plant response rating (0 to 10 scale) [16, 18] | Blackgrass plant response rating [16, 19] | Plant response rating, Blackgrass [16, 20] | Blackgrass plant response rating [16, 21] | Blackgrass plant response rating [16, 22] | Plant response rating (0 to 10; 0 is no effect, 10 is complete control), Blackgrass ([16]; Rate 250 g/ha, Postemergence) | Blackgrass plant response rating [16, 23]
